# Experimental data taken from patent publication US7173063B1, “Topoisomerase poisons for the treatment of proliferative disorders” (Fred Hutchinson Cancer Research Center, priority 2000, dated 2007).
# Test system: yeast Topo I
# Assay: Toxicity in yeast overexpressing yeast Topo I (yTOP1) or ytop1-vac mutant
# Type: cell-based
# Description: The strains are derived from the A364a genetic background, with the exception of BY4705, which is derived from the S288C background. Gene disruptions were generated by PCR fragment directed replacement (Baudin, et al., Nucleic Acids Research 21: 3329–30 (1993), Guldener, et al., Nucleic Acids Research 24: 2519–24 (1996)). Yeast overexpressing topoisomerase II was constructed by a PCR fragment directed promoter replacement of the topoisomerase II promoter with the yeast GPD promoter flanked upstream by the URA3 marker. All strains (except BY4705) bear the pleitropic drug sensitizing mutations erg6, pdr1, and pdr3 (Balzi, et al., Journal of Bioenergetics & Biomembranes 27: 71–6 (1995), Delaveau, et al, Molecular & General Genetics 244: 501–11 (1994), Gaber, et al., Molecular & Cellular Biology 9: 3447–56 (1989), Saunders, et al., Canadian Journal of Genetics & Cytology, 24: 493–503 (1982). Subik, et al, Current Genetics 10: 665–70 (1986)). The haploid yeast strain BY4705 (Brachmann, et al., Yeast 14: 115–32 (1998)) was used in the experiments described in FIG. 5. Plasmids expressing yeast or human topoisomerase I genes under the GAL promoter (Knab, et al., Journal of Biological Chemistry 268: 22322–30 (1993). Knab, et al., Journal of Biological Chemistry 270: 6141–8 (1995)) were transformed into BY4705 using standard procedures.
# Yeast toxicity assays were performed essentially as follows: Exponentially growing cultures of the appropriate strains were diluted in synthetic complete media to a concentration of 7.4×10^4 cells/mL, and aliquots (135 μL) were transferred to each well of clear flat-bottomed 96 well plates. Compounds were added in duplicate or triplicate as 15 μL of the appropriate dilution in 5% DMSO. A 15 μL portion of 5% DMSO was added to control wells. […] Cell growth (OD660) in treated wells was plotted as a percentage of the growth in at least four averaged solvent control wells for the same strain. Camptothecin sodium salt (camptothecin Na) was the agent used in all yeast assays as standard.
# In this regard, the sensitivity of yeast strains overexpressing either human or yeast topoisomerase I genes (hTOP1 or yTOP1, respectively) under the control of the inducible GAL promoter (see, for example, Knab, et al., Journal of Biological Chemistry 268: 22322–30 (1993); and Knab, et al., Journal of Biological Chemistry 270: 6141–8 (1995)) were used. Additionally, the sensitivity of yeast overexpressing the Topo I-VAC mutant enzyme, containing two amino acid substitutions (htop1-vac and ytop1-vac) that render topoisomerase I insensitive to the action of camptothecin were also examined (see, for example, Knab, et al., Journal of Biological Chemistry 268: 22322–30 (1993); and Knab, et al., Journal of Biological Chemistry 270: 6141–8 (1995)).
structure (smiles),measurement,setting,value
O=c1c(Cl)c(Cl)cnn1CCCl [compound IIa],"toxicity in yeast overexpressing yTOP1-vac compared to vector control, cell survival by colony formation",colony formation after treatment,is accentuated
same,effect of ytop1-vac (camptothecin-resistant mutant) overexpression on toxicity,relative OD660,effective with both yTOP1 and ytop1-vac
